The source of these data is ChEMBL document CHEMBL2413002, “A convenient synthesis of lubeluzole and its enantiomer: evaluation as chemosensitizing agents on human ovarian adenocarcinoma and lung carcinoma cells” (Bioorg Med Chem Lett, 2013).

A word on the IC50: it is the midpoint of a concentration-inhibition curve. A low value points to greater potency in that assay. For orientation: inhibition means the percentage by which the read-out fell short of the control. Read a low inhibition as a response near the control.

Structures are written as SMILES.

Assay [1] deals with A549. Briefly: Cytotoxicity against human A549 cells after 72 hrs by MTT assay. The format is functional, cell-based. Conditions: A549, 72 h.
Assay [2] deals with A2780. The experiment in a line: Cytotoxicity against human A2780 cells after 72 hrs by MTT assay. Conditions: A2780, 72 h. The format is functional, cell-based. In general terms: Tetrazolium dyes change colour on reduction, which living cells bring about.
Assay [3] relates to A2780. Briefly: Antiproliferative activity against human A2780 cells at 0.005 uM after 72 hrs by MTT assay. The note with it: A2780, 72 h. The assay is classed as functional.
Assay [4] has as its system A549. Briefly: Antiproliferative activity against human A549 cells at 0.005 uM after 72 hrs by MTT assay. The format is functional. The note with it: A549, 72 h.

In assay [1], `CC(=O)O[C@H]1C(=O)[C@@]2(C)[C@H]([C@H](OC(=O)c3ccccc3)[C@]3(O)C[C@H](OC(=O)[C@H](O)[C@@H](NC(=O)c4ccccc4)c4ccccc4)C(C)=C1C3(C)C)[C@]1(OC(C)=O)CO[C@@H]1C[C@@H]2O` [PACLITAXEL] showed an IC50 of 0.014 µM.

Consider `CN(c1nc2ccccc2s1)C1CCN(C[C@H](O)COc2ccc(F)c(F)c2)CC1` [LUBELUZOLE], for which the IC50 was found to be 5.7 µM in assay [2] and 14 µM in assay [1]. Besides, the inhibition at 0.005 µM was 4.3% in assay [3] and 5.2% in assay [4].

Consider `COc1cccc2c1C(=O)c1c(O)c3c(c(O)c1C2=O)C[C@@](O)(C(=O)CO)C[C@@H]3O[C@H]1C[C@H](N)[C@H](O)[C@H](C)O1` [DOXORUBICIN], for which 0.023 µM corresponded to half-maximal inhibition in assay [2] (IC50).

Take `CN(c1nc2ccccc2s1)C1CCN(C[C@@H](O)COc2ccc(F)c(F)c2)CC1`: the IC50 in assay [2] was 14 µM; in assay [1] it was 18 µM.
